Assay results published in patent US11781114B2, “Materials and methods for expansion of stem cells” (FLORIDA STATE UNIVERSITY RESEARCH FOUNDATION, INC., priority 2014, dated 2023).
Entries after “also recorded” stand apart in the source; their conditions may differ.

Columns and labels:
Format in all cases: cell-based, human
hMSC aggregates [1] = test: hMSC aggregate formation and compaction (aggregate size) with cytoskeleton modulators; design: aggregate compaction vs non-treated control: dose or concentration left out as unconfirmed; details: for aggregate compaction / aggregate diameter: 0.2 to 0.6 μM; for aggregate compaction vs non-treated control: nocodazole 3D treatment
Description: hMSCs from monolayer culture were trypsinized and 100 μL media containing 5,000 cells were added in each well of an ultra-low attachment (ULA) 96-well plate with round-bottom (Corning, Corning, N.Y.) for overnight. To analyze size-dependent ATP contents, aggregates containing 500, 2,000, and 5,000 cells were used following the same method. Suspended single hMSCs spontaneously self-assembled into one aggregate per well. Aggregates were cultured individually up to 7 days with media change every two days. The aggregates were tracked individually and the morphologies were imaged with an Olympus IX70 microscope (Center Valley, Pa.).
Cytochalasin D (cytoD), lysophosphatidic acid (LPA), Y-27632, nocodazole were added into culture media to final concentrations of 0.2 to 0.6 μM, 2.0 to 10.0 μM, 2.0 to 10 μM, and […], respectively. To test the temporal effects of actin modulators on aggregate formation, cells were treated with media containing cytoD and LPA during monolayer culture prior to aggregate formation (termed “2D Pretreatment”) or 12 hours after aggregate formation in ULA plates (termed “3D Treatment). Only 3D treatments were performed for Y-27632 and nocodazole.
Morphology of the aggregates was visualized using an Olympus IX70 microscope and the images recorded. The images were processed and the areas of the individual aggregates were calculated using ImageJ software (rsb.info.nih.gov/ij/). The DNA content of the individual aggregates was used to calculate cell number. Briefly, individually collected hMSC aggregates were washed with phosphate buffered saline (PBS) and digested with proteinase K overnight. PicoGreen (Life Technologies) was added to triplicate samples and a DNA standard in a 96-well plate. The cell numbers in aggregates were determined by the PicoGreen fluorescence intensity using 9.3 pg/cell as determined in our prior study (Kim and Ma 2012). DNA assay detects double-stranded DNA that may also be present in dead cells with intact DNA. However, this population in the aggregates is low, and the yield of live cells measured by DNA assay is close to cell count using other methods such as flow cytometry (Ylostalo et al. 2014). The packing densities were calculated using cell number divided by aggregate volume assuming a spherical shape. At least six aggregates were used in each condition.

hMSC aggregates [2] = test: Cell survival and packing density of aggregates by DNA content (PicoGreen)
Description: The DNA content of the individual aggregates was used to calculate cell number. Briefly, individually collected hMSC aggregates were washed with phosphate buffered saline (PBS) and digested with proteinase K overnight. PicoGreen (Life Technologies) was added to triplicate samples and a DNA standard in a 96-well plate. The cell numbers in aggregates were determined by the PicoGreen fluorescence intensity using 9.3 pg/cell as determined in our prior study (Kim and Ma 2012). […] The packing densities were calculated using cell number divided by aggregate volume assuming a spherical shape. At least six aggregates were used in each condition.

Caspase 3/7 = test: Caspase-Glo 3/7 assay; details: for caspase 3/7 activity in 3D aggregates: normalized to cell number
Description: (§1) Caspase 3/7 activity was measured by Caspase-Glo 3/7 assay systems (Promega, Madison, Wis.). Caspase-Glo 3/7 working buffer was added to triplicate samples containing aggregates and culture media in 96-well [sequence] 200 white immunology plate (Greiner Bio-One, Monroe, N.C.). The results were read by a luminescence plate reader and normalized to cell number (Biotek Instruments, Winooski, Vt.). Secreted PGE-2 and IL-6 in conditioned media were quantified using a PGE-2 Parameter Assay Kit and IL-6 DuoSet ELISA kits, respectively (R&D Systems, Minneapolis, Minn.). Total secreted PGE-2 and IL-6 were determined by subtracting cytokine concentrations in culture media controls and normalized to the cell number in the aggregates.

hMSC aggregates [3] = test: Aggregate spreading on glass coverslip and fusion on ULA surface; details: for aggregate spreading on glass coverslip / fusion of adjacent aggregates on ULA surface: aggregates treated for 5 days
Description: To test re-adhesion and fusion, the aggregates from various treatment conditions were plated on glass coverslip for re-adhesion or placed adjacently on ULA surface for fusion. Images were captured with Olympus IX70 microscope and analyzed by ImageJ software.

IL-6 = test: Secreted IL-6 in conditioned media (ELISA); details: treated 3D aggregates
Description: as §1

PGE-2 = test: Secreted PGE-2 in conditioned media (Parameter Assay Kit); details: treated 3D aggregates
Description: as §1

hMSC aggregates [4] = test: Morphology by SEM, H&E histology and F-actin staining; details: for cell morphology in the aggregates (SEM and histology) / outer boundary of aggregates (H&E, F-actin staining of sections): treated aggregates vs control aggregates; for hMSC morphology on 2D planar surface (F-actin staining): nocodazole treatment
Description: For SEM, the aggregate samples were fixed in 4% paraformaldehyde (PFA), dehydrated through a graded series of ethanol, incubated in hexamethyldisilazane, and vacuum dried overnight. The samples were mounted onto carbon-coated chucks, sputter-coated with gold in an argon atmosphere for 4 minutes at 2 kV, and analyzed on a SEM (JSM-7401F) (JEOL, Tokyo, Japan). For immunostaining, the cells were fixed with 4% PFA, permeabilized with 0.5% Triton X-100, blocked with 1.0% BSA, incubated with primary antibody, and imaged with an Olympus IX70 (Center Valley, Pa.) microscope. For histology, hematoxylin-eosin (H&E) staining was performed following the prior reported method (Kim and Ma 2012). hMSC aggregates were fixed in 10% formalin, dehydrated and embedded in paraffin wax; 10 μm sections were cut and stained with Lerner-2 Hematoxylin (Lerner Laboratories, Pittsburgh, Pa.) and Eosin-Y w/ Phloxine (Richard-Allan Scientific, Kalamazoo, Mich.) by standard procedures (Kim and Ma 2012). Images were captured with Olympus IX70 microscope with MagnaFire SP 2.1B software.

hMSC aggregates [5] = test: hMSC aggregate formation and compaction (aggregate size) with cytoskeleton modulators; details: cytoD 2D pretreatment, concentration above 0.6 μM (high concentration)
[6] = 0.6 μM cytoD 3D treatment, day 5
[7] = Q-VD-OPh, after three days of culture

Molecule: C=C1[C@@H](C)[C@H]2[C@H](Cc3ccccc3)NC(=O)[C@]23[C@H](OC(C)=O)/C=C/[C@@](C)(O)C(=O)[C@@H](C)C/C=C/[C@H]3[C@@H]1O [cytoD, Cytochalasin D]
- aggregate compaction (hMSC aggregates [1]; cytoD 2D pretreatment, lower concentrations): prevented aggregate compaction
- aggregate compaction (hMSC aggregates [1]; cytoD 2D pretreatment, lower concentrations, listed as CytoD): reduced compaction
- aggregate integrity (hMSC aggregates [1]; cytoD 3D treatment, 0.6 μM): remained intact
- aggregate compaction / aggregate diameter (hMSC aggregates [1]; cytoD 3D treatment): dose-dependent reduction on compaction
- aggregate compaction / aggregate diameter (hMSC aggregates [1]; cytoD 3D treatment, listed as CytoD): reduced compaction; also recorded: Dose-dependent decline of aggregate diameters
- cell viability / cell survival vs control aggregates (hMSC aggregates [2]; [6]): significantly reduced cell viability; also recorded: significantly lower cell survival
- packing density vs control aggregates (hMSC aggregates [2]; [6]): significantly reduced; also recorded: significantly lower
- caspase 3/7 activity in 2D adherent culture (Caspase 3/7): significantly increased caspase 3/7 activity
- caspase 3/7 activity in 3D aggregates (Caspase 3/7): comparable apoptotic activity
- aggregate spreading on glass coverslip (hMSC aggregates [3]): abolishes; also recorded: did not spread on glass coverslips; also recorded: completely prevented aggregate spreading on glass coverslip
- fusion of adjacent aggregates on ULA surface (hMSC aggregates [3]): abolishes; also recorded: nor fused; also recorded: completely prevented
- fusion and adhesion properties of hBMSC aggregates (hMSC aggregates [3]; hBMSC aggregates on ULA plates / glass): abrogated their fusion and adhesion properties; also recorded: abrogates these properties
- IL-6 secretion of 3D aggregates (IL-6): limited effects
- PGE-2 secretion of 3D aggregates (PGE-2): limited effects
- cell morphology in the aggregates (SEM and histology) (hMSC aggregates [4]): large interstitial space and exhibit round morphology; also recorded: loosely packed and exhibited spherical morphology with abundant interstitial space
- outer boundary of aggregates (H&E, F-actin staining of sections) (hMSC aggregates [4]): loosely packed with no spreading at the boundary
- outer boundary of aggregates (H&E, F-actin staining of sections) (hMSC aggregates [4]; listed as CytoD): disintegrated outer boundaries; also recorded: discontinuous outer boundary
- outer boundary of aggregates (H&E, F-actin staining of sections) (hMSC aggregates [4]; listed as cytochalasin D): disrupted the mechanically polarized outer layer
- hMSC aggregation (aggregate formation) (hMSC aggregates [5]): disrupted hMSC aggregation
- hMSC aggregation (aggregate formation) (hMSC aggregates [5]; listed as CytoD): prevented hMSC aggregation

Molecule: CC(C)[C@H](NC(=O)c1ccc2ccccc2n1)C(=O)N[C@@H](CC(=O)O)C(=O)COc1c(F)cccc1F [Q-VD-OPh]
- aggregate compaction vs control (hMSC aggregates [1]; [7]): significantly reduced cell compaction
- cell packing density vs control (hMSC aggregates [2]; [7]): increased cell packing density; also recorded: higher packing density
- cell viability / survival vs control (hMSC aggregates [2]; [7]): improved cell survival; also recorded: significantly increased cell viability
- IL-6 secretion of 3D aggregates (IL-6): attenuated to basal levels
- PGE-2 secretion of 3D aggregates (PGE-2): attenuated to basal levels

Molecule: lysophosphatidic acid [LPA]
- aggregate compaction vs control (hMSC aggregates [1]; LPA up to 10 μM, 2D pretreatment and 3D treatment): minimal impact on aggregate compaction; also recorded: declined at the same rate as control; also recorded: limited effects
- viability / cell survival vs control (hMSC aggregates [2]; LPA up to 10 μM, 5 days 3D treatment): comparable cell survival; also recorded: limited effects
- cell packing density vs control (hMSC aggregates [2]; LPA, 5 days 3D treatment): comparable
- caspase 3/7 activity in 2D adherent culture (Caspase 3/7): increased caspase 3/7 activity
- caspase 3/7 activity in 3D aggregates (Caspase 3/7): increased caspase 3/7 activity
- aggregate spreading on glass coverslip (hMSC aggregates [3]): readily re-adhered and spread on glass coverslips; also recorded: spread on glass coverslip
- fusion of adjacent aggregates on ULA surface (hMSC aggregates [3]): fused when adjacently placed on ULA surface; also recorded: readily fused

Molecule: C[C@@H](N)[C@H]1CC[C@H](C(=O)Nc2ccncc2)CC1 [Y-27632]
- increase in aggregate diameter compared to control aggregates (hMSC aggregates [1]; 10 μM Y-27632, day 5): 6.7%
- aggregate compaction (hMSC aggregates [1]; Y-27632 3D treatment, 10 μM): prevented aggregate compaction; also recorded: reduced aggregate compaction
- cell viability / cell survival vs control aggregates (hMSC aggregates [2]; 10 μM Y-27632, 5 days of treatment): lower than non-treated control; also recorded: comparable or even less
- decrease in cell packing density compared to control aggregates (hMSC aggregates [2]; 10 μM Y-27632, day 5): 38.7%
- cell packing density vs control (in words) (hMSC aggregates [2]; Y-27632, day 5): significantly lower
- caspase 3/7 activity in 2D adherent culture (Caspase 3/7): increased caspase 3/7 activity
- caspase 3/7 activity in 3D aggregates (Caspase 3/7): highest caspase 3/7 activity; also recorded: increased caspase 3/7 activity
- aggregate spreading on glass coverslip (hMSC aggregates [3]): readily re-adhered and spread on glass coverslips
- fusion of adjacent aggregates on ULA surface (hMSC aggregates [3]): fused when adjacently placed on ULA surface; also recorded: reduced tendency to fuse
- IL-6 secretion of 3D aggregates (IL-6): limited effects
- PGE-2 secretion of 3D aggregates (PGE-2): limited effects
- cell morphology in the aggregates (SEM and histology) (hMSC aggregates [4]): large interstitial space and exhibit round morphology; also recorded: loosely packed and exhibited spherical morphology with abundant interstitial space
- outer boundary of aggregates (H&E, F-actin staining of sections) (hMSC aggregates [4]): disintegrated outer boundaries; also recorded: discontinuous outer boundary; also recorded: loosely packed with no spreading at the boundary

Molecule: COC(=O)Nc1nc2cc(C(=O)c3cccs3)ccc2[nH]1 [nocodazole]
- aggregate compaction vs non-treated control (hMSC aggregates [1]): comparable contractility with control aggregates; also recorded: comparable or higher compaction
- aggregate compaction vs non-treated control (hMSC aggregates [1]; listed as Nocodazole): faster compaction
- aggregate spreading on glass coverslip (hMSC aggregates [3]): readily spread on adherent surface; also recorded: readily re-adhered and spread on glass coverslips; also recorded: spread on glass coverslip
- fusion of adjacent aggregates on ULA surface (hMSC aggregates [3]): fuse with neighboring aggregates; also recorded: fused when adjacently placed on ULA surface; also recorded: readily fused
- hMSC morphology on 2D planar surface (F-actin staining) (hMSC aggregates [4]): drastic changes of cell morphology
- hMSC morphology on 2D planar surface (F-actin staining) (hMSC aggregates [4]; listed as Nocodazole): significantly altered hMSC morphology
